The results in this text go back to US20250025615A1, “NEW DIALYSIS FLUID” (GAMBRO LUNDIA AB, priority 2021, published 2025).

Molecules are shown by their SMILES.

Holding throughout (format): cell-based, human
The test system of one assay is A172 (glioblastoma). Kind of assay: Study 2: cell viability (CellTiter-Glo) in DMEM without sodium pyruvate. Particulars: increase in BOHB concentration (0, 4, 12 mM), no pyruvate, 3 d. Here is the method:
(§1) Cell lines established from human colon carcinoma (HCT15, NCI-H508 and COLO205), renal cell carcinoma (769-P, 786-O and RCC4) and glioblastoma (LN-18, A-172 and U-118 MG) were selected for the analysis. All cell lines were obtained from American Type Culture Collection (ATCC, LGC standards, UK) except for RCC4 and HCT15 that was purchased from Sigma-Aldrich (Merck, Germany). In addition, primary human renal cell carcinoma (RCC) cells isolated from patient nephrectomies were included in the study. The culture conditions were as recommended by American Type Culture Collection (ATCC) were followed, that is to grow cells in DMEM medium with the addition of 1 mM sodium pyruvate, which was also added to the RPMI-1640 medium in order to keep the conditions more similar 769-P, RCC4, LN-18, A-172, U-118 MG and the primary RCC cells were cultured in DMEM high glucose medium, while 786-O HCT15, NCI-H508 and COLO205 were cultured in RPMI-1640 medium according to the recommendations from ATCC. […]
(§2) CellTiter-Glo Luminescent cell viability assay (Promega) was used as a readout of viability.
(§3) For each cell line, optimal number of cells as determined above were seeded into 96-well plates on day 0. […] After 3d incubation in test condition medium, with daily medium changes, cell viability was determined using the CellTiter-Glo viability test. […]

Assay [1] concerns RCC4 (renal cell carcinoma). The description is as above. Particulars: increase in BOHB concentration (0, 4, 12 mM), no pyruvate, 3 d. Here is the method: as §1, §2, §3
The next assay has as its system RCC4 renal carcinoma. Put plainly: Example 2: growth in Medium A-C with or without ketones (CellTiter-Glo). The following applies: nutrient restricted Medium C, FIG. 11. The procedure: To study the effect of a nutrient restricted ketogenic environment on cancer cell growth in vitro, three different cell culture media were formulated. Medium A was full RPMI1640 medium that the cell lines routinely are cultured in. Medium B was used as an approximation of the conditions found in normal human serum. The levels of glucose, glutamine, serine, glycine and arginine were adjusted to match normal physiological levels found in human serum. These nutrients were selected based on their reported use as energy source and effects on cancer cell metabolic state. Medium C was used to emulate the ketogenic nutrient restricted Cancer Dialysis condition. Here, the levels of the selected nutrients were reduced to half of the physiological levels in Medium B, and the ketone body BOHB was added. […]
All cell lines were purchased from ATCC (ATCC, LGC standards) except for RCC4 that was from Sigma-Aldrich (Merck). […] Optimal seeding density was determined for each cell line in 96-well plates cultured for 3 days in standard cell culture medium. […]
In Medium B, to mimic physiological conditions, the levels of glutamine, serine, glycine, arginine and glucose were set to the median of measured levels in human serum, based on data from the Mayo Clinic Laboratories (https://www.mayocliniclabs.com/test-catalog/Clinical+and+Interpretive/9265). […]

The next assay has as its system glioma cell line A172. Put plainly: Example 2: culture in Medium A-C with BOHB and/or Acac (CellTiter-Glo). The following applies: for growth: normoxic, combined experiment 2-6, 16 mM BOHB or 8 mM Acac added separately, FIG. 9. Here is the method: (§4) The ketone bodies acetoacetate (Acac), BOHB and acetone are produced by the liver during fasting or starvation. BOHB is the major ketone body in mammals, while Acac constitutes around 20%.
(§5) Cells were maintained in RPMI-1640 medium (31870-025 GIBCO) with the addition of 10% serum, 200 mM L-glutamine and 1% penicillin-streptomycin (PEST) in humidified chambers at 37° C. and 5% CO2. For hypoxic conditions (5% O2), cells were maintained in a Galaxy 14 S CO2 incubator (Eppendorf) where N2 was used to adjust the O2 level to 5%.
(§6) Medium B and C were prepared from RPMI1640 modified medium powder without L-glutamine, glucose and amino acids (R9010-01, US Biological Life Sciences). For 1L medium, 7.4 g powder was dissolved in 900 ml sterile water without heating and 2 g sodium bicarbonate was added. Amino acids listed in Table 5 were added to the same concentration as in full RPMI1640 medium (Table 5). After all additions, the medium was sterilized by filtering through 0.22 um membranes and divided into two bottles.
(§7) To model Cancer Dialysis conditions in Medium C, the levels of these nutrients were reduced to 50% of the physiological levels. As for Medium A, 1% PEST and 10% dialyzed serum were added to Medium B and C. Sodium pyruvate, that is a common addition in cell culture medium, was not present in any of the used media.
(§8) Stock solutions of DL-β-Hydroxybutyric acid sodium salt (H6501, Sigma Aldrich) and Lithium Acetoacetate (A8509, Sigma Aldrich) were prepared in water, sterile filtered, aliquoted and stored at −20° C. Lithium Chloride (L7026, Sigma Aldrich) was used as a control for the addition of Lithium in the Li-Acac.
(§9) CellTiter-Glo Luminescent cell viability assay (Promega) was used as a readout of cell numbers according to the manufacturers' instructions. In experiments shown in FIG. 7-8, double plates were seeded and treated. One set of plates was used for collection of medium for lactate measurement (see below) and the CellTiterGlo-assay. The other set of plates was frozen at −80° C. at the end of the experiment. The frozen plates were intended for the CyQuant cell proliferation assay (Thermo Fisher) that measures the amount of DNA per well. Analysis of the amounts of cells by both CellTiterGlo and CyQuant assays would ensure that effects of the culture conditions on viability or growth rate would not be concealed by simultaneous changes in ATP-levels per cell.
(§10) Next, it was decided to also include Acac in the study and analyze the viability of cells cultured in the presence of BOHB and Acac alone or in combination in Medium A-C. The experiment was performed at 21% and 5% O2. The experiments were made with glioma cell lines A172 and U118MG.
(§11) Being a chiral molecule, BOHB exists as two enantiomers, D-and L-BOHB. D-BOHB is normally produced and metabolized in humans. The BOHB-salt used in this study contains a mixture of 50:50 of D-and L-BOHB. In order to ensure a high presence of the active D-form, the total concentration of BOHB added was increased to 16 mM, giving a level of 8 mM D-BOHB. To keep the total concentration of active ketones constant, 8 mM Acac was used, and for the combination of both ketones, the levels were adjusted to 4 mM Acac and 8 mM BOHB (containing 4 mM D-BOHB).
(§12) The Acac available for in vitro use is in the form of a lithium salt. Since lithium itself can affect the viability of cancer cells [Cohen-Harazi et al., Anticancer Res 2020; 40:3831-3837], 8 mM LiCl was used as a control for the 8 mM Acac data point and 4 mM LiCl was used as a control for the 4 mM Acac/8 mM BOHB data.
Background: In ATP-based viability assays light output follows the ATP content of the culture.

The subject of the next assay is glioma cell line U118MG. Described as above. The procedure: as §4, §5, §6, §7, §8, §9, §10, §11, §12
[2] abbreviates: Medium A, normoxia and hypoxia, 16 mM BOHB alone.
Where [3] appears, read: Medium C, 21 and 5% O2, 16 mM BOHB.
Where [4] appears, read: Medium A, normoxia and hypoxia, 8 mM Acac compared to 8 mM LiCl control.
Where [5] appears, read: Medium B, 21% O2, 8 mM Acac compared to 8 mM LiCl control.
Where [6] appears, read: Medium C, 8 mM Acac alone compared to 8 mM LiCl control.

`CC(O)CC(=O)[O-].[Na+]` (racemic) [BOHB, DL-β-Hydroxybutyric acid sodium salt]: the “proliferation of cells (cell viability)” value (in the assay with A172 (glioblastoma); in assay [1]) was “suppresses the proliferation of cells” each time. In addition, the “increased sensitivity to high levels of ketones” value with RCC4 renal carcinoma is given as “not found”. For the same compound, the growth inhibitory effect result with glioma cell line A172 (setting [2]) and with glioma cell line U118MG (setting [2]) was “no growth inhibitory effect” throughout. Moreover, in the assay on glioma cell line A172 (Medium B, hypoxia, 16 mM BOHB), the “number of cells, % of the amount in Medium B without BOHB” value is reported as “approximately 70%”. Moreover, the “number of cells, % compared to C-medium without BOHB” value in the assay with glioma cell line A172 (setting [3]) and in the assay with glioma cell line U118MG (setting [3]) was “around 30%” throughout. The growth entry in the assay on glioma cell line A172 (Medium C) is “trend of reduced growth”.

Turning to `CC(=O)CC(=O)[O-].[Li+]` [Acac, Lithium Acetoacetate], the number of cells result is “did not reduce the number of cells further” in the assay with glioma cell line A172 (setting [4]), “reduced the number of cells significantly” in the assay on glioma cell line A172 (setting [5]), “did not reduce the number of cells further” in the assay on glioma cell line U118MG (setting [4]) and “reduced the number of cells significantly” in the assay with glioma cell line U118MG (setting [5]). Moreover, the amounts of cells result with glioma cell line A172 (setting [6]) and in the assay with glioma cell line U118MG (setting [6]) was “did not significantly reduce the amounts of cells” each time. In addition, in the assay with glioma cell line A172 (Medium C), the growth entry is listed as “trend of reduced growth”.
